This is an account of results in patent US9839632B2, “Methods and compositions using 4-amino-2-(2,6-dioxo-piperidine-3-yl)-isoindoline-1,3-dione for treatment and management of central nervous system cancers” (CELGENE CORPORATION, priority 2013, dated 2017).

Assay [1] has as its system human monocyte U937. The assay is described as follows: Polarization of IL4-treated human monocyte U937 (immunofluorescence). The class given is cell-based. The note with it: U937, IL-4 20 ng/ml 48 hours then 10 ug/ml 48 hours. As to the method: Raji lymphoma cells (ATCC), U937 human monocyte cells (ATCC) and YTS NK cells (a gift from Dr. Pamela A. Becker) were cultured at 37° C. in a humidified incubator under 5% CO2 and 95% air in RPMI-1640 supplemented with 20% FCS and 1% penicillin-streptomycin, and 1% nonessential amino acids.
Treatments: In experiments in which IL-4 was used to induce M2 polarization of macrophages, cells were treated with IL-4 (20 ng/ml) for 48 hours followed by treatment with 4-amino-2-(2,6-dioxo-piperidine-3-yl)-isoindoline-1,3-dione (10 ug/ml) or DMSO control for 48 hours. In triple cell culture experiments with lymphoma cells, macrophages, and NK cells, the treatment was with either DMSO or 4-amino-2-(2,6-dioxo-piperidine-3-yl)-isoindoline-1,3-dione (10 ug/ml) for 48 hours.
Immunofluorescence for analysis of macrophage polarization in cell culture experiments: Live cells were fixed in 10% formalin for 30 minutes at room temperature followed by permeabilization with PBS-0.2% Triton X-100 for 2 min. […]

Assay [2] relates to macrophages and NK cells in the CNS lymphoma microenvironment. The assay is described as follows: Immunohistochemistry/immunofluorescence of CNS lymphoma microenvironment, OCI-LY10 model. The class given is in vivo, athymic mice. The following applies: P<0.05 vs control. From the text:
Immunohistochemistry (“IHC”) assessment for macrophages: Paraffin sections (10 μm thick) were fixed, blocked, and immunostained with the appropriate antibody: Iba-1 (BD Biosciences) for macrophages, Ym1 (Stemcell Technologies) as a marker for M2 polarization, iNOS (Calbiochem) as a marker for M1 polarization. Aperio ScanScope XT slide scanner and image analysis system (Aperio Spectrum, Vista, Calif.) were used for quantitative assessment of macrophages. Three equal-size (0.4 mM2) fields in macrophage-dense areas were selected in the contralateral brain and the tumor for counting. Data were shown as an average of the three fields.
Immunofluorescence for natural killer cells: Frozen sections (10 μm thick) were permeabilized with PBS-0.2% Triton X-100 for 5 min. After blocking with PBS-5% goat serum-0.02% Triton X-100 for 45 mins at 37° C., the sections were incubated overnight at 4° C. with Rat monoclonal CD335 antibody (a marker for NK cells, 1:200, Biolegend). After washing, sections were incubated with the Alexa Fluor 594 Goat anti-Rat IgG secondary antibody (1:1000, Life Technologies) at 37° C. for 1.5 h. Finally, Vectashield H-1200 mounting medium with DAPI (Vector Laboratories) was used to stain the nuclei. Images were obtained on a Zeiss LSM 510 META confocal microscope. Six equal-size (0.2 mM^2) fields in NK-dense areas were selected in the tumor for taking pictures. Fluorescence intensity data were generated by Zeiss LSM 510 and shown as an average of six fields.
Statistical analysis: One-way ANOVA was used to compare the difference between the groups at each time point. Two-way repeated measures ANOVA was used to analyze the interaction between the time and treatment. Survival analysis was performed by Kaplan Meier method. Kaplan Meier survival curves were generated using Prism4 software and the statistical difference between curves was derived with a log-rank test. P<0.05 was considered significant.

Setting [3] is: listed as 4-amino-2-(2,6-dioxo-piperidine-3-yl)-isoindoline-1,3-dione.

Structures are written as SMILES.

For `Nc1cccc2c1C(=O)N(C1CCC(=O)NC1=O)C2=O` (centres unmarked) [Pomalidomide, 4-amino-2-(2,6-dioxo-piperidine-3-yl)-isoindoline-1,3-dione], the “polarization status (FXIII A, pSTAT6 vs iNOS, pSTAT1 expression)” value in assay [1] is listed as “from M2 to M1”. Also, in assay [2], the “CD335 positive NK cells in CNS tumors” value is “significantly increased”, the “Ym1 expression (M2-polarized macrophages) in tumor” value is recorded as “significantly decreased” and the “iNOS activity (M1-polarized macrophages) in tumor” value is listed as “increased”. Besides, in assay [2] (setting [3]), the “CD335 positive NK cells in CNS tumors” value is “significant increase”, the “Ym1 expression (M2-polarized macrophages) in tumor” value is recorded as “significant decrease” and the “iNOS activity (M1-polarized macrophages) in tumor” value is “significant increase”. In assay [2] (contralateral brain and tumor), the “brain macrophages (Iba-1 positive cells)” value is listed as “significantly increased”.
